# From patent US9271504B2, “Insecticidal compositions and uses thereof” (Board of Trustees of Michigan State University, priority 2005, dated 2016)
# Where “and” joins values, the source holds several entries; their conditions need not be identical. Equal entries are not always repeated.
# What was measured:
# [1] = system: redbanded leafrollers, Argyrotaenia velutinana; assay: Electroantennogram (EAG) responses of redbanded leafrollers; type: in vivo; conditions: 2 mg on filter paper
# Description: (§1) Five natural-product sources were used per study. The plants (Table 1) were all collected from sandy lime soil during spring and summer of 2002 in Ta ? liçiftlik, Tokat, in a temperate region of Turkey, where the altitude is 600 m. Samples were dried at room temperature for 3 wk in the dark and subsequently were ground in a mill (M 20 IKA Universal Mill, IKA Group). Ground plants were stored in 2000-ml glass jars at 18±2° C. in the dark. Fifty-gram samples were placed into 1000-ml Erlenmeyer flasks with 500-ml of methanol (Sigma). […] The resulting residue was weighed and mixed with acetone to yield a 20% (w/w) plant suspension.
# (§2) The EAG system and test protocols have been detailed by Stelinski et al. (2003 J. Chem. Ecol. 29: 403-422; Physiol. Entomol. 28: 97-107). Two milligrams of plant extracts (Table 1) or pheromone ((Z)11-14:Ac (lot #10010), Shin Etsu Tokyo, Japan) were diluted in acetone (20 μl total solution) and pipetted onto 1.4×0.5 cm strips of Whatman No. 1 filter paper. […] EAGs were measured as the maximum amplitude of depolarization elicited by 1-ml puffs of air through EAG-cartridges directed over live-insect preparations.
# (§3) Male and female obliquebanded leafrollers and redbanded leafrollers were 2-4 d old when used for electroantennograms. […] For each sample tested, EAGs were recorded from ten moths of each sex. […]
# [2] = system: obliquebanded leafrollers, Choristoneura rosaceana; assay: Eight-arm olfactometer attraction study; type: in vivo; conditions: 25 μl of 20% w/w extract in acetone, counts after 24 h
# Excerpt: Male or female obliquebanded leafrollers used in this study were 1-3 d old. They were reared as described above. Discs, 55 mm in diameter, were cut from the sticky liners of pheromone traps (LPD Scenturian Guardpost, Suterra, Bend, Oreg.) intended for catching Lepidoptera. Each sticky disc was cleaned with acetone and placed into sterile 90-mm disposable Petri dish. Twenty millimeter diameter discs, cut from Whatman Number 1 filter paper, were placed centrally on top of the 55-mm sticky discs. Twenty-five microliters of each plant extract, diluted in acetone (20% w/w), was applied to the central filter paper disc. In the control treatment, 25-μl of acetone was applied to the disc. In the positive control, 25-μl of the pheromone component (Z)11-14:Ac was applied. In addition to positive control and negative or non-treatment control discs, a three-component obliquebanded leafroller pheromone in a rubber septum was also used as a standard. The septa were loaded with 0.485 mg of (Z)- and 0.015 mg (E)-11-tetradecenyl acetates and 0.026 mg of (Z)-11-tetradecenol (Hill and Roelofs 1979). […]
# For the olfactometer test, the number of male insects attracted by each treatment was expressed as a percentage of the total number of insects tested in each replicate. […] The transformed data were analyzed using single-factor ANOVA (Minitab Release 14) (P=0.05) followed by Tukey's test (P=0.05). […]
# [3] = system: obliquebanded leafrollers, Choristoneura rosaceana; assay: Electroantennogram (EAG) responses of obliquebanded leafrollers; type: in vivo; conditions: 2 mg on filter paper
# Description: as §1, §2, §3
# [4] = system: 3rd instar Colorado potato beetle larvae; assay: Residual (stomach poison) toxicity bioassay on treated potato leaflets; type: in vivo, Leptinotarsa decemlineata; conditions: leaflets treated with 20% (w/w) extract
# Description: Stomach poison effects of the thirty plant extracts were assed by morbidity assays using 3rd instar larvae fed on treated potato leaflets.
# Leaflets were treated with 2 ml of each plant extract suspension in distilled water containing 10% acetone with the Potter Spray Tower set at 10 PSI with a 0.7 mm internal diameter nozzle. After treatment, the leaflets were dried at room temperature for about 5 min. The cut end of each leaflet petiole was covered with a 30×55 mm piece of sterile cotton wool, which was moistened with 2 ml of water containing 1% NPK (20-20-20) fertilizer. This treatment ensured that the excised leaflet remained green for at least 7 days. Treated leaflets were transferred into 1000 ml glass jars to which 20 3rd instar larvae were added before incubation as described above. Mortalities were assessed at 24 hr intervals for 7 days. Control leaflets were treated with 2 ml of distilled water containing 10% acetone and the standard imidacloprid control was used as described above. Each treatment was repeated three times per block and blocks were completed in a randomized complete block design.
# [5] = system: Colorado potato beetle 1st-4th instar larvae and adults; assay: Contact toxicity to various development stages; type: in vivo, Leptinotarsa decemlineata; conditions: 48 h incubation, 40% (w/w) suspension
# Description: The plant samples were prepared according to the procedure described above. Nine extracts were used in this study. The plants (Table 8) were all collected during spring and summer of 2002. Samples were dried at room temperature and were ground for 5 min in a mill (M 20 IKA Universal Mill, IKA Group). […] For the dose-mortality bioassay, H. lupulus extract stock suspension was prepared as described above, containing 50% (w/w) plant extract/water with 10% acetone, and diluted in distilled water containing 10% acetone (w/w) to produce solutions containing 2.5, 5, 10, 20 and 40% (w/w).
# Extract contact effects were determined on 1st-4th instar larvae as well as adult beetles. Twenty individuals for each development stage were transferred to Whatman filter paper in 90 mm disposable Petri dishes. The plant extract suspensions were shaken for 1 min and 2 ml of extract suspension was applied to each batch using a Potter spray tower set at 10 PSI with a 0.7 mm diameter fine droplet spray nozzle. After spraying, the insects were left to dry for 10 min at room temperature before transferring into a 1 l glass jar with fresh potato leaflets. The insects were incubated at 28±2° C. and 16:8 hr photophase. Controls were treated with 2 ml sterile distilled water containing 10% acetone. Imidacloprid (CONFIDOR SL, Bayer) was used as a standard control and three groups of 20 insects were treated with 2 ml of imidacloprid at the manufacturer's recommended rate (1.5 μl/ml) in distilled water. Mortalities were recorded at 24 h intervals for 7 d. Data were submitted to a randomized complete block statistical analysis. Three replicates of each developmental stage were sprayed with a plant extract suspension, three were used as control in each trial and three trials were performed each consisting of 3 treatment replicates.
# Screening data were corrected for mortality in the controls using Abbott's formula (Abbott, J Econ Entomol 18:265-267 (1925)) and then normalised using an arcsine transformation. Transformed data were analyzed using ANOVA (P<0.05) and Tukeys mean separation (P≦0.05). All statistical analyses were carried out using MINITAB Release 14. Colorado potato beetle mortality obtained from dose-mortality bioassay utilizing H. lupulus was corrected for control mortality using Abbott's formula (supra). The corrected mortality data were analyzed using POLO-PC to estimate LC50, LC90 and the regression line slopes. Homogeneity of the regression lines between various developmental stages were tested using the maximum likelihood approximation test (P≦0.05).
# [6] = system: 3rd instar Colorado potato beetle larvae; assay: Contact toxicity bioassay (Potter spray tower), 3rd instar larvae; conditions: 2 ml of 40% (w/w) plant suspension
# Description: Fifty grams of sample were placed into 1000 ml Erlemneyer flasks with 500 ml of methanol (Sigma). Flasks were covered with aluminum foil, placed on a horizontal shaker (HS 260 Basic, IKA Group) and shaken (120 oscillations/min for 24 h) in the dark. The suspension was filtered through two layers of cheese cloth, transferred into a 250 ml evaporating flask and excess methanol evaporated in a rotary evaporator (RV 05 Basic 1B, IKA Group) at 32±2° C. The resulting residue was weighted and eluted with sufficient distilled water containing 10% acetone (w/w) to yield a 40% (w/w) plant suspension.
# Two ml of the distilled water containing 10% acetone was also applied to 20 larvae in each replicate as a negative control along with imidacloprid (CONFIDOR SL, Bayer) at manufacturer recommended rate as a positive control. After spraying, the larvae were transferred into 1000 ml glass jars and provided with fresh potato leaflets. The top of each jar was covered with cheese cloth and held at 28±2° C. and 16 h: 8 h light dark photo regime. Mortalities were recorded at 24 h intervals for 7 days. […] Each treatment was replicated three times within a trial and each trial was repeated three times.
# Data were corrected for mortality in the controls using Abbotts formula and then normalized using arcsine transformation. Transformed data were analyzed using ANOVA (∝=0.05) and Tukeys mean separation (∝=0.05). […]
Compound,EAG responses (mV ± SE) upon stimulation with 1 ml of air through stimulus cartridge ([1]; females) [a mV],EAG responses (mV ± SE) upon stimulation with 1 ml of air through stimulus cartridge ([1]; males) [a mV],"Attraction (Mean ± SEM) % ([2]; females, listed as Pheromone on paper)",Attraction (Mean ± SEM) % ([2]; males) [bc %],EAG responses (mV ± SE) upon stimulation with 1 ml of air through stimulus cartridge ([3]; females) [ab mV],EAG responses (mV ± SE) upon stimulation with 1 ml of air through stimulus cartridge ([3]; males) [a mV],Residual toxicities % (mean ± SEM) ([4]; 48 h incubation at 28 ± 2° C.),Residual toxicities % (mean ± SEM) ([4]; 72 h incubation at 28 ± 2° C.) [a A %],"% Mortality ± SEM, contact toxicity ([5]; 1st Instar Larvae) [%]","% Mortality ± SEM, contact toxicity ([5]; 2nd Instar Larvae)","% Mortality ± SEM, contact toxicity ([5]; 3rd Instar Larvae) [%]","% Mortality ± SEM, contact toxicity ([5]; 4th Instar Larvae)","% Mortality ± SEM, contact toxicity ([5]; Adult) [a %]",Mortality % (mean ± SEM) caused by contact effect ([6]; 24 h incubation at 28 ± 2° C.) [a A %],Mortality % (mean ± SEM) caused by contact effect ([6]; 48 h incubation at 28 ± 2° C.) [a A %]
"CC/C=C\CCCCCCCCCCOC(C)=O [Pheromone, (Z)11-14:Ac]",0.43 ± 0.06,5.42 ± 0.40,1.1% and 1.14 ± 1.12 b %,4.05 ± 1.66,0.45 ± 0.06,4.87 ± 0.32,,,,,,,,,
O=[N+]([O-])NC1=NCCN1Cc1ccc(Cl)nc1 [Imidacloprid],,,,,,,71.9% and 71.89 ± 0.25 a A %,83.64 ± 0.23,100,94.8% and 94.82 ± 3.05 a %,100,11.5% and 11.57 ± 0.11 b %,44.37 ± 3.32,100 ± 0.00,100 ± 0.00
